One block for each compound: values may come before it.
Columns and labels:
[1] = system: MCF7 cells; test: Western blot of Akt pathway after mTOR inhibitor; assay type: cell-based; details: 24 hour time course
Description: The upper panels (A) show western blots of OV3 cell lysates following the treatment with 1 nM mTOR inhibitor rapamycin for the time indicated. Membranes were probed with antibodies specific to phosphorylated isoforms and to the total protein for comparison of Akt, p70S6K and FKHRL 1. The lower panels (B) illustrate western blots of MCF7 cell lysates following treatment with the mTOR inhibitor RAD001 for the time indicated. Membranes were probed with antibodies specific to phosphorylated isoforms and to the total protein for comparison of Akt and p70S6K.
OV3 and MCF7 cells were treated with the mTOR inhibitors rapamycin and RAD001, respectively, over a 24 hour time course. Lysyates were resolved by SDS-PAGE and transferred to a membrane for western blotting. Membranes were probed with antibodies to phospho-Akt, total Akt, phospho-p70S6K, and total p70S6K. Membranes with lysates derived from OV3 cells were additionally probed with antibodies to phospho-FKHRL 1 and total FKHRL 1.

[2] = system: Akt; assay type: cell-based, human; details: 2 hours; trastuzumab 2 μg/ml, triciribine 2.5 μM, RAD001 0.4 nM
[3] = system: p70S6K; assay type: cell-based, human; details: 2 hours; trastuzumab 2 μg/ml, RAD001 0.4 nM
[4] = biological target: PKCα (Homo sapiens, UniProt P17252); test: PKCα activity, kinase assay and immunoblot; assay type: cell-based
[5] = system: H929 cells and U266 cells; test: Survival of multiple myeloma derived cells; assay type: cell-based

SMILES: CO[C@H]1C[C@@H]2CC[C@@H](C)[C@@](O)(O2)C(=O)C(=O)N2CCCC[C@H]2C(=O)O[C@H]([C@H](C)C[C@@H]2CC[C@@H](OCCO)[C@H](OC)C2)CC(=O)[C@H](C)/C=C(\C)[C@@H](O)[C@@H](OC)C(=O)[C@H](C)C[C@H](C)/C=C/C=C/C=C/1C [RAD001, everolimus]
activation of Akt pathway [1]: rapid activation of Akt pathway
phosphorylation of Akt on Thr308 and Ser473 [2]: feedback activation of Akt
phosphorylation of p70S6K [3]: dramatically blocked

kinase activity of PKCα [4]: inhibited
SMILES: Cn1cc(C2=C(c3cn(CCCSC(=N)N)c4ccccc34)C(=O)NC2=O)c2ccccc21 [Ro 31-8220]

SMILES: CC(C)C[C@H](NC(=O)[C@H](Cc1ccccc1)NC(=O)c1cnccn1)B(O)O [bortezomib]
effect of API-2 on survival of myeloma cells [5]: synergistically enhances

Source: patent publication US8901086B2, “Compositions including triciribine and methods of use thereof” (University of South Florida, priority 2004, dated 2014)
